Measurements published in patent US4370489A, “Herbicidal compounds” (Hoechst Aktiengesellschaft, priority 1976, dated 1983).

Key:
[1] = test system: Alopecurus; test: Post-emergence greenhouse pot trial, annual blackgrass (Example I, Table I); type: in vivo, annual blackgrass (Alopecurus); details: greenhouse pots, 4 weeks
Method: (§1) Seeds of weed grasses were sown in pots filled with loamy soil and placed in the greenhouse for germination and emergence. As soon as the plants had developed 3 or 4 leaves, they were sprayed with wettable powder formulations, suspended in water, of compounds according to the invention.
(§2) The results and also the results of all following examples were evaluated 4 weeks later according to the following scheme:
(§3) 4 is still considered an acceptable herbicidal effect in weeds and a satisfactory preserving effect in crop plants (cf. Bolle, Nachrichtenblatt des Deutschen Pflanzenschutzdienstes 16, 1964, pages 92-94).
(§4) Effect on weed grasses in a post-emergence trial in pots
(§5) in the greenhouse (Evaluation scheme)

[2] = test system: weed grasses; test: Pre-emergence greenhouse pot trial, weed grasses overall (Example V); type: in vivo; details: in words
Method: as §2
In a greenhouse the compounds to be tested were sprayed on the surface of the soil directly after sowing. […] Dicotyledonous crop plants (the same as used in Example I) were not damaged by the applied amounts.
Effect on weed grasses in a pre-emergence process (evalua-
tion scheme) experiment in pots in the greenhouse.

[3] = test system: Digitaria; test: Post-emergence greenhouse pot trial, Digitaria (Example I, Table I); type: in vivo; details: greenhouse pots, 4 weeks
Method: as §1, §2, §3, §4, §5

[4] = test system: Setaria; test: Post-emergence greenhouse pot trial, Setaria (Example I, Table I); type: in vivo; details: greenhouse pots, 4 weeks
Method: as §1, §2, §3, §4, §5

[5] = test system: wild oat; test: Post-emergence trial in the greenhouse, wild oat (Example VII, Table VII); type: in vivo; details: 31 kg/hectare, emulsion concentrate, 4 weeks after treatment
Method: as §2
In a greenhouse some of the compounds of the invention were sprayed on plants of wild oat, the compounds being used as emulsion concentrates.
(§6) Post-emergence trial in the greenhouse
Effect on wild oat 4 weeks after treatment
Dose 31 kg/hectare of active compound (as emulsion

[6] = test system: Echinochloa; test: Post-emergence greenhouse pot trial, Echinochloa (Example I, Table I); type: in vivo; details: greenhouse pots, 4 weeks
Method: as §1, §2, §3, §4, §5

[7] = test system: Lolium; test: Post-emergence greenhouse pot trial, Lolium (Example I, Table I); type: in vivo; details: greenhouse pots, 4 weeks
Method: as §1, §2, §3, §4, §5

[8] = test system: barnyard grass; test: Post-emergence trial in the greenhouse, barnyard grass (Example VIII, Table VIII); type: in vivo; details: 31 kg/hectare, wettable powder, 4 weeks after treatment, 3 to 4 leaf-stage
Method: as §2
In a similar trial some of the compounds of the invention were sprayed in the form of wettable powder formulations on barnyard grass in the 3 to 4 leaf-stage.
as §6
Effect on barnyard grass 4 weeks after treatment
Dose 31 kg/hectare of active compound (as wettable

Row | Structure (SMILES) | Effect on weed grasses (evaluation scheme number), Alopecurus ([1]; 0.15 kg/hectare) | Effect on weed grasses (evaluation scheme number), Alopecurus ([1]; 0.62 kg/hectare) | Effect on weed grasses (evaluation scheme number), Alopecurus ([1]; 2.5 kg/hectare) | effect in pre-emergence treatment compared with comparative compound A [2] | Effect on weed grasses (evaluation scheme number), Digitaria ([3]; 0.15 kg/hectare) | Effect on weed grasses (evaluation scheme number), Digitaria ([3]; 0.62 kg/hectare) | Effect on weed grasses (evaluation scheme number), Digitaria ([3]; 2.5 kg/hectare) | Effect on weed grasses (evaluation scheme number), Setaria ([4]; 0.15 kg/hectare) | Effect on weed grasses (evaluation scheme number), Setaria ([4]; 0.62 kg/hectare) | Effect on weed grasses (evaluation scheme number), Setaria ([4]; 2.5 kg/hectare) | effect (number) on wild oat [5] | Effect on weed grasses (evaluation scheme number), Echinochloa ([6]; 0.15 kg/hectare) | Effect on weed grasses (evaluation scheme number), Echinochloa ([6]; 0.62 kg/hectare) | Effect on weed grasses (evaluation scheme number), Echinochloa ([6]; 2.5 kg/hectare) | Effect on weed grasses (evaluation scheme number), Lolium ([7]; 0.15 kg/hectare) | Effect on weed grasses (evaluation scheme number), Lolium ([7]; 0.62 kg/hectare) | Effect on weed grasses (evaluation scheme number), Lolium ([7]; 2.5 kg/hectare) | effect (number) on barnyard grass [8]
1 | CCOC(=O)C(C)Oc1ccc(Oc2ccc(Br)cc2Cl)cc1 (stereo not drawn) [Compound 1b, 4-(2'-chloro-4'-bromophenoxy)-α-phenoxy-propionic acid ethyl ester] | 6 (75.0 to <85.0) | 1 (100) | 1 (100) | Analogous results | 7 (65.0 to <75.0) | 1 (100) | 1 (100) | 1 (100) | 1 (100) | 1 (100) | 1 (100) | 1 (100) | 1 (100) | 1 (100) | 6 (75.0 to <85.0) | 2 (97.5 to <100) | 1 (100) | –
2 | CC(Oc1ccc(Oc2ccc(Br)cc2Cl)cc1)C(=O)O (stereo not drawn) [Compound 2e] | – | – | – | – | – | – | – | – | – | – | – | – | – | – | – | – | – | 4 (90.0 to <95.0)
3 | CC(Oc1ccc(Oc2ccc(Br)cc2Cl)cc1)C(=O)O (stereo not drawn) [Compound 2b] | – | – | – | – | – | – | – | – | – | – | – | – | – | – | – | – | – | 3 (95.0 to <.97.5)
4 | CC(Oc1ccc(Oc2ccc(Br)cc2Cl)cc1)C(=O)O (stereo not drawn) [Compound 2c] | – | – | – | – | – | – | – | – | – | – | – | – | – | – | – | – | – | 1 (100)
5 | CC(Oc1ccc(Oc2ccc(Br)cc2Cl)cc1)C(=O)O (stereo not drawn) [Compound 2d] | – | – | – | – | – | – | – | – | – | – | – | – | – | – | – | – | – | 1 (100)
6 | CC(C)COC(=O)C(C)Oc1ccc(Oc2ccc(Br)cc2Cl)cc1 (stereo not drawn) [Compound 1e, 4-(2'-chloro-4'-bromophenoxy)-α-phenoxy-propionic acid isobutyl ester] | – | – | – | – | – | – | – | – | – | – | 2 (97.5 to <100) | – | – | – | – | – | – | –
7 | CC(C)OC(=O)C(C)Oc1ccc(Oc2ccc(Br)cc2Cl)cc1 (stereo not drawn) [Compound 1c, 4-(2'-chloro-4'-bromophenoxy)-α-phenoxy-propionic acid isopropyl ester] | 6 (75.0 to <85.0) | 3 (95.0 to <.97.5) | 1 (100) | Analogous results | 7 (65.0 to <75.0) | 4 (90.0 to <95.0) | 1 (100) | 3 (95.0 to <.97.5) | 1 (100) | 1 (100) | 1 (100) | 1 (100) | 1 (100) | 1 (100) | 5 (85.0 to <90.0) | 4 (90.0 to <95.0) | 3 (95.0 to <.97.5) | 1 (100)
8 | CCCCOC(=O)C(C)Oc1ccc(Oc2ccc(Br)cc2Cl)cc1 (stereo not drawn) [Compound 1d, 4-(2'-chloro-4'-bromophenoxy)-α-phenoxy-propionic acid n-butyl ester] | 3 (95.0 to <.97.5) | 2 (97.5 to <100) | 1 (100) | Analogous results | 6 (75.0 to <85.0) | 1 (100) | 1 (100) | 2 (97.5 to <100) | 1 (100) | 1 (100) | 1 (100) | 2 (97.5 to <100) | 1 (100) | 1 (100) | 6 (75.0 to <85.0) | 4 (90.0 to <95.0) | 2 (97.5 to <100) | –
